# Assay results published in US20220144815A1, “1,3,4-OXADIAZOLES AND THEIR DERIVATIVES AS NEW ANTIFUNGAL AGENTS” (Bayer Aktiengesellschaft, priority 2018, published 2022).
# Where two headings read alike, the source gives them in different places.
# Experiment: Log P by HPLC on reversed phase columns, method [a] (EEC directive 79/831 Annex V.A8)
# Type: physicochemical
# Details: for chromatographic logP: reversed phase HPLC column
# Experimental: Measurement of Log P values as provided herein was performed according to EEC directive 79/831 Annex V.A8 by HPLC (High Performance Liquid Chromatography) on reversed phase columns with the following methods: • ^[a] Log P value is determined by measurement of LC-UV, in an acidic range, with 0.1% formic acid in water and acetonitrile as eluent (linear gradient from 10% acetonitrile to 95% acetonitrile). • ^[b] Log P value is determined by measurement of LC-UV, in a neutral range, with 0.001 molar ammonium acetate solution in water and acetonitrile as eluent (linear gradient from 10% acetonitrile to 95% acetonitrile). • ^[c] Log P value is determined by measurement of LC-UV, in an acidic range, with 0.1% phosphoric acid and acetonitrile as eluent (linear gradient from 10% acetonitrile to 95% acetonitrile). If more than one Log P value is available within the same method, all the values are given and separated by “+”. Calibration was done with straight-chain alkan2-ones (with 3 to 16 carbon atoms) with known Log P values (measurement of Log P values using retention times with linear interpolation between successive alkanones). Lambda-max-values were determined using UV-spectra from 200 nm to 400 nm and the peak values of the chromatographic signals In table 1, the log P values were determined according to method [^a]. In table 2, the log P values were determined according to method [^a].
# [1] = method [a], HPLC on reversed phase columns, read-out: logP
# [2] = log P determined according to method [a] (HPLC on reversed phase columns)
# [3] = log P determined according to method [a] (HPLC on reversed phase columns), read-out: logP
Structure (SMILES),chromatographic logP [1],logP [2],further results
"FC(F)Oc1ccc(C2(Nc3ncc(-c4nnc(C(F)F)o4)cn3)CC2)cc1 [I.247, N-{1-[4-(difluoromethoxy)phenyl]cyclopropyl}-5-[5-(difluoromethyl)-1,3,4-oxadiazol-2-yl]pyrimidin-2-amine]",2.91,,
FC(F)c1nnc(-c2cnc(Cl)nc2)o1 [Example I-061],,1.55,
CN(c1ccccc1)c1ncc(-c2nnc(C(F)F)o2)cn1 [Example I-087],,2.80,
CCn1nccc1Nc1ncc(-c2nnc(C(F)F)o2)cn1 [Example I-096],,1.49,
O=C(O)c1ccc(-c2nnc(C(F)(F)F)o2)cc1 [Example I-004],,2.20,
Fc1ccc(Nc2ncc(-c3nnc(C(F)F)o3)cn2)cc1 [Example I-095],,2.64,
"FC(F)c1nnc(-c2cnc(Nc3ccccc3Cl)nc2)o1 [I.114, N-(2-chlorophenyl)-5-[5-(difluoromethyl)-1,3,4-oxadiazol-2-yl]pyrimidin-2-amine]",,,chromatographic logP [3]: 2.92
FC(F)c1nnc(-c2cnc(-c3cccnc3)nc2)o1 [Example I-070],,2.03,
"FC(F)c1nnc(-c2cnc(NC3(c4ccc(C(F)(F)F)cc4)CC3)nc2)o1 [I.250, 5-[5-(difluoromethyl)-1,3,4-oxadiazol-2-yl]-N-{1-[4-(trifluoromethyl)phenyl]cyclopropyl}pyrimidin-2-amine]",3.25,,
FC(F)c1nnc(-c2cnc(NC3(C4CC4)CC3)nc2)o1 [Example I-082],,2.33,
"CCc1noc(-c2ccc(C(=O)NNC(=O)C(F)(F)F)cc2)n1 [IIa.14, 4-(3-ethyl-1,2,4-oxadiazol-5-yl)-N′-(trifluoroacetyl)benzohydrazide]",,,"chromatographic logP (Method A: LC-UV, acidic range, 0.1% formic acid in water and acetonitrile, read-out: Log P): 1.93"
"CC(Nc1ncc(-c2nnc(C(F)F)o2)cn1)c1ccc(F)cc1F (racemic) [I.215, 5-[5-(difluoromethyl)-1,3,4-oxadiazol-2-yl]-N-[(1RS)-1-(2,4-difluorophenyl)ethyl]pyrimidin-2-amine]",3.01,,
CC1(C(=O)Nc2ccc(-c3nnc(C(F)F)o3)cn2)CC1 [Example I-045],,2.28,
"Cc1ccnc(C2(Nc3ncc(-c4nnc(C(F)F)o4)cn3)CC2)c1 [I.203, 5-[5-(difluoromethyl)-1,3,4-oxadiazol-2-yl]-N-[1-(4-methylpyridin-2-yl)cyclopropyl]pyrimidin-2-amine]",0.93,,
Fc1ccccc1C1(Nc2ccc(-c3nnc(C(F)F)o3)cc2)CC1 [Example I-025],,3.57,
FC(F)c1nnc(-c2ccc(Nc3ncccn3)cc2)o1 [Example I-013],,2.23,
"CCON(Cc1ccccc1)c1ncc(-c2nnc(C(F)F)o2)cn1 [I.148, N-benzyl-N-{5-[5-(difluoromethyl)-1,3,4-oxadiazol-2-yl]pyrimidin-2-yl}-O-ethylhydroxylamine]",,,chromatographic logP [3]: 3.28
"FC(F)c1nnc(-c2cnc(Nc3ccccc3C3CC3)nc2)o1 [I.119, N-(2-cyclopropylphenyl)-5-[5-(difluoromethyl)-1,3,4-oxadiazol-2-yl]pyrimidin-2-amine]",,,chromatographic logP [3]: 3.1
"CC(Cc1ccc(F)cc1)Nc1ncc(-c2nnc(C(F)F)o2)cn1 (racemic) [I.210, 5-[5-(difluoromethyl)-1,3,4-oxadiazol-2-yl]-N-[(2RS)-1-(4-fluorophenyl)propan-2-yl]pyrimidin-2-amine]",3.12,,
FC(F)c1nnc(-c2ccc(-c3ccco3)nc2)o1 [Example I-035],,2.33,
"CC(Nc1ncc(-c2nnc(C(F)F)o2)cn1)c1ccccn1 (racemic) [I.189, 5-[5-(difluoromethyl)-1,3,4-oxadiazol-2-yl]-N-[(1RS)-1-(pyridin-2-yl)ethyl]pyrimidin-2-amine]",1,,
"CC(C)(Nc1ncc(-c2nnc(C(F)F)o2)cn1)c1c(F)cccc1F [I.168, 5-[5-(difluoromethyl)-1,3,4-oxadiazol-2-yl]-N-[2-(2,6-difluorophenyl)propan-2-yl]pyrimidin-2-amine]",,,chromatographic logP [3]: 3.34
FC(F)c1nnc(-c2cnc(CC3CCCCC3)nc2)o1 [Example I-083],,3.40,
"CC(C)(Cc1ccc(F)cc1)Nc1ncc(-c2nnc(C(F)F)o2)cn1 [I.223, 5-[5-(difluoromethyl)-1,3,4-oxadiazol-2-yl]-N-[1-(4-fluorophenyl)-2-methylpropan-2-yl]pyrimidin-2-amine]",3.79,,

Structure (SMILES),chromatographic logP [1],logP [2],further results
Fc1ccccc1Nc1ccc(-c2nnc(C(F)F)o2)cc1 [Example I-017],,3.19,
COCCNC(=O)c1ccc(-c2nnc(C(F)F)o2)cn1 [Example I-047],,1.55,
CNc1ncc(-c2nnc(C(F)F)o2)cn1 [Example I-060],,1.23,
"O=[N+]([O-])c1cc(C2(Nc3ncc(-c4nnc(C(F)F)o4)cn3)CC2)ccc1Cl [I.259, N-[1-(4-chloro-3-nitrophenyl)cyclopropyl]-5-[5-(difluoromethyl)-1,3,4-oxadiazol-2-yl]pyrimidin-2-amine]",2.96,,
O=C(O)c1ccc(-c2nnc(C(F)F)o2)cn1 [Example I-032],,0.83,
"CC(Nc1ncc(-c2nnc(C(F)F)o2)cn1)c1ccccc1C(F)(F)F (racemic) [I.240, 5-[5-(difluoromethyl)-1,3,4-oxadiazol-2-yl]-N-{(1RS)-1-[2-(trifluoromethyl)phenyl]ethyl}pyrimidin-2-amine]",3.42,,
"CC(C)(Nc1ncc(-c2nnc(C(F)F)o2)cn1)c1ccc(Cl)cc1 [I.231, N-[2-(4-chlorophenyl)propan-2-yl]-5-[5-(difluoromethyl)-1,3,4-oxadiazol-2-yl]pyrimidin-2-amine]",3.55,,
"CC(Nc1ncc(-c2nnc(C(F)F)o2)cn1)c1ncccn1 (racemic) [I.191, 5-[5-(difluoromethyl)-1,3,4-oxadiazol-2-yl]-N-[(1RS)-1-(pyrimidin-2-yl)ethyl]pyrimidin-2-amine]",1.49,,
"FC(F)Oc1cccc(C2(Nc3ncc(-c4nnc(C(F)F)o4)cn3)CC2)c1 [I.246, N-{1-[3-(difluoromethoxy)phenyl]cyclopropyl}-5-[5-(difluoromethyl)-1,3,4-oxadiazol-2-yl]pyrimidin-2-amine]",2.91,,
CN(C(=O)c1ccc(-c2nnc(C(F)F)o2)cc1)c1ccccc1 [Example I-022],,2.46,
"CC(Nc1ncc(-c2nnc(C(F)F)o2)cn1)c1ccncc1 (racemic) [I.190, 5-[5-(difluoromethyl)-1,3,4-oxadiazol-2-yl]-N-[(1RS)-1-(pyridin-4-yl)ethyl]pyrimidin-2-amine]",0.65,,
"CCC(Nc1ncc(-c2nnc(C(F)F)o2)cn1)c1ccc(Cl)cc1 (racemic) [I.230, N-[(1RS)-1-(4-chlorophenyl)propyl]-5-[5-(difluoromethyl)-1,3,4-oxadiazol-2-yl]pyrimidin-2-amine]",3.58,,
O=C(Nc1ccc(F)cc1F)c1ccc(-c2nnc(C(F)F)o2)cc1 [Example I-027],,2.57,
Fc1cc(-c2ncc(-c3nnc(C(F)F)o3)cn2)ccn1 [Example I-079],,2.33,
"CC(Nc1ncc(-c2nnc(C(F)F)o2)cn1)c1ccc2ccccc2c1 (racemic) [I.232, 5-[5-(difluoromethyl)-1,3,4-oxadiazol-2-yl]-N-[(1RS)-1-(2-naphthyl)ethyl]pyrimidin-2-amine]",3.45,,
"CN(c1ncc(-c2nnc(C(F)F)o2)cn1)C1(c2ccccc2F)CC1 [I.221, 5-[5-(difluoromethyl)-1,3,4-oxadiazol-2-yl]-N-[1-(2-fluorophenyl)cyclopropyl]-N-methylpyrimidin-2-amine]",3.98,,
"CCCC(Nc1ncc(-c2nnc(C(F)F)o2)cn1)c1ccccc1 (racemic) [I.140, 5-[5-(difluoromethyl)-1,3,4-oxadiazol-2-yl]-N-[(1RS)-1-phenylbutyl]pyrimidin-2-amine]",,,chromatographic logP [3]: 3.54
"O=C(N(c1ncc(-c2nnc(C(F)F)o2)cn1)C1(c2ccccc2F)CC1)C(F)(F)F [I.267, N-{5-[5-(difluoromethyl)-1,3,4-oxadiazol-2-yl]pyrimidin-2-yl}-2,2,2-trifluoro-N-[1-(2-fluorophenyl)cyclopropyl]acetamide]",3.91,,
COC(=O)Nc1ccc(-c2nnc(C(F)F)o2)cn1 [Example I-038],,1.66,
COCCNc1ncc(-c2nnc(C(F)F)o2)cn1 [Example I-068],,1.48,
"Cc1ccc(C(C)(C)Nc2ncc(-c3nnc(C(F)F)o3)cn2)cc1 [I.204, 5-[5-(difluoromethyl)-1,3,4-oxadiazol-2-yl]-N-[2-(4-methylphenyl)propan-2-yl]pyrimidin-2-amine]",3.46,,
"FC(F)c1nnc(-c2cnc(NC3(c4cccc(Cl)c4Cl)CC3)nc2)o1 [I.253, N-[1-(2,3-dichlorophenyl)cyclopropyl]-5-[5-(difluoromethyl)-1,3,4-oxadiazol-2-yl]pyrimidin-2-amine]",3.74,,
FC(F)c1nnc(-c2cnc(OCc3ccccc3)nc2)o1 [Example I-090],,2.75,
Cc1ccc(NC(=O)c2ccc(-c3nnc(C(F)F)o3)cn2)cc1 [Example I-048],,3.14,
